Results published in PubChem BioAssay (NCI).
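Test compounds were applied to cells in 96-well plates for 48 hours at 5 doses. GI50 = concentration required for 50% inhibition of growth. TGI is the concentration that stops growth completely.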

How the values were obtained:
Test in all cases: growth of human tumour cells (NCI), 48 h
HCT-15 colon = test system: HCT-15 colon
NCI/ADR-RES ovarian = test system: NCI/ADR-RES ovarian
MDA-MB-231 breast = test system: MDA-MB-231 breast
CCRF-CEM leukemia = test system: CCRF-CEM leukemia
MALME-3M melanoma = test system: MALME-3M melanoma
HCC-2998 colon = test system: HCC-2998 colon
OVCAR-3 ovarian = test system: OVCAR-3 ovarian
NCI-H522 lung = test system: NCI-H522 lung
NCI-H460 lung = test system: NCI-H460 lung
SW-620 colon = test system: SW-620 colon

Row | SMILES | GI50 (HCT-15 colon) | TGI (HCT-15 colon) | GI50 (NCI/ADR-RES ovarian) | TGI (NCI/ADR-RES ovarian) | GI50 (MDA-MB-231 breast) | TGI (MDA-MB-231 breast) | GI50 (CCRF-CEM leukemia) | TGI (CCRF-CEM leukemia) | GI50 (MALME-3M melanoma) | TGI (MALME-3M melanoma) | GI50 (HCC-2998 colon) | TGI (HCC-2998 colon) | GI50 (OVCAR-3 ovarian) | TGI (OVCAR-3 ovarian) | GI50 (NCI-H522 lung) | TGI (NCI-H522 lung) | GI50 (NCI-H460 lung) | TGI (NCI-H460 lung) | GI50 (SW-620 colon) | TGI (SW-620 colon)
1 | CCCN(CCC)c1ccc(CO)c(C)c1 | 51.9 µM | > 100 µM | > 100 µM | > 100 µM | 77.4 µM | > 100 µM | 17.7 µM | 59.9 µM | 11.3 µM | 94.4 µM | > 100 µM | > 100 µM | 23 µM | > 100 µM | 19.3 µM | 60.5 µM | > 100 µM | > 100 µM | > 100 µM | > 100 µM
2 | O=Cc1ccc(-c2ccc(-c3ccc(C=O)s3)o2)s1 |  | > 100 µM |  | > 100 µM |  | > 100 µM |  | > 100 µM |  | > 100 µM |  | 51.5 µM |  | 5.89 µM |  | 29.5 µM |  | > 100 µM |  | > 100 µM
3 | O=C1C=C(Nc2ccccc2C(=O)CC(=O)C(=O)Nc2cccc(C(F)(F)F)c2)c2ccccc2C1=O |  | > 100 µM |  | 49.5 µM |  | > 91.1 µM |  | 44.7 µM |  | 28.7 µM |  | > 78 µM |  | 53.8 µM |  | 79.2 µM |  | > 100 µM |  | 48.6 µM
4 | COc1cc(OC)c2c(=O)c(O)c(-c3ccc(OC)c(OC)c3)oc2c1 |  | > 100 µM |  | 17.5 µM |  | > 100 µM |  | > 100 µM |  | > 31.6 µM |  | 9.34 µM |  | > 100 µM |  | > 31.6 µM |  | > 100 µM |  | > 100 µM
5 | C=CC1CC12C(=O)C1OC2(C)C2C(=O)c3c(ccc4c3ccc3ccccc34)C(=O)C12 (centres undefined) | 14.2 µM | 80.6 µM | 74.9 µM | > 100 µM | 39.1 µM | > 100 µM | 17.1 µM | > 100 µM | 16.8 µM | > 100 µM | 94.6 µM | > 100 µM |  |  | > 100 µM | > 100 µM | 37.1 µM | > 100 µM |  | 
6 | COc1ccc(C(O)CNC(=O)c2ccccc2)cc1 (centres undefined) |  | > 100 µM |  | > 100 µM |  | > 100 µM |  | > 100 µM |  | > 100 µM |  | > 100 µM |  | > 100 µM |  | > 100 µM |  | > 100 µM |  | > 100 µM
7 | COC(=O)CCC(=O)c1c(C)[nH]c(/C=C2\N=C(c3ccc[nH]3)C=C2OC)c1C | 0.292 µM | 1.89 µM | 0.728 µM | 3.66 µM | 0.385 µM | 2.64 µM | 0.199 µM | 2.37 µM | 1.49 µM | 3.47 µM | 1.41 µM | 5.84 µM | 0.353 µM | 1.7 µM | 1.13 µM | 2.86 µM | 6.86 µM | 40.9 µM | 0.318 µM | 1.32 µM
8 | [Cu+2].[O-]c1ccc2ccccc2c1N=Nc1ccccc1.[O-]c1ccc2ccccc2c1N=Nc1ccccc1 |  | > 100 µM |  | > 100 µM |  | > 100 µM |  | > 100 µM |  | > 100 µM |  | > 100 µM |  | > 100 µM |  | > 100 µM |  | > 100 µM |  | > 100 µM
9 | COc1ccc2c(c1)c(C1(c3cn(C)c4ccc(OC)cc34)C(=O)Nc3ccc(F)cc31)cn2C | 5 µM | > 100 µM | 4.66 µM | > 100 µM | 2.89 µM | 18.6 µM | 4.56 µM | > 100 µM | 6.52 µM | 89.5 µM | 4.53 µM | > 100 µM | 10.2 µM | 87.4 µM | 2.67 µM | 7.75 µM | 3.65 µM | 14.6 µM | 7.48 µM | > 100 µM
10 | COc1ccc(O)c(C(=O)c2ccc(C(=O)O[C@@H]3CCCNC[C@H]3NC(=O)c3ccncc3)cc2)c1F | 0.918 µM | > 25 µM | 1.87 µM | 24.2 µM | > 10.3 µM | > 25 µM | 0.313 µM | > 6.03 µM | 1.57 µM | > 25 µM | 2.08 µM | > 25 µM | 0.961 µM | > 7.35 µM | 1.74 µM | > 13 µM | 0.869 µM | > 25 µM |  | > 25 µM
11 | CCOC(=O)CC1(O)C=CC(=O)C=C1 | 0.313 µg/mL | 0.596 µg/mL | 1.28 µg/mL | 6.57 µg/mL | 0.443 µg/mL | 1.31 µg/mL | 0.757 µg/mL | 7.02 µg/mL | 0.914 µg/mL | 2.89 µg/mL | 2.56 µg/mL | 4.68 µg/mL | 0.738 µg/mL | 2.16 µg/mL | 0.515 µg/mL | 1.31 µg/mL | 1.12 µg/mL | 3.21 µg/mL | 1.68 µg/mL | 4.39 µg/mL
12 | CC(=O)O[C@@H]1CO[C@H]2O[C@H]3[C@@H](C(C=O)=C[C@H](O)[C@@H]4C5=C(C(C)C)CC[C@]5(C)CC[C@@]34C)[C@@]2(O)C1=O |  | 0.687 µM |  | 1.06 µM |  | 0.407 µM |  | 0.418 µM |  | 0.347 µM |  | 1.27 µM |  | 0.278 µM |  | 0.24 µM |  | 0.699 µM |  | 0.213 µM
13 | CO[C@@H]1[C@@H](OC2OC(C)C(OC3CC(C)(O)C(OC(=O)CC(C)C)C(C)O3)C(N(C)C)C2O)[C@@H](CC=O)C[C@@H](C)C(=O)/C=C/C2O[C@H]2C[C@@H](C)OC(=O)C[C@H]1OC(C)=O (some centres undefined) |  | 36 µM |  | 98.9 µM |  | 45.6 µM |  | 34.3 µM |  | 27.9 µM |  | 32 µM |  | 40.5 µM |  | 36 µM |  | 41.8 µM |  | 35.8 µM
14 | Nc1cc(-c2ccccc2)ccc1O | 68.7 µM | > 100 µM | 45 µM | > 100 µM | 7.32 µM | > 100 µM | 23.2 µM | > 100 µM | > 100 µM | > 100 µM |  |  | 68.8 µM | > 100 µM |  |  | > 100 µM | > 100 µM | > 100 µM | > 100 µM
15 | CCN(CC)CCOc1ccc(/C=C2\CC3C4CCC5=CC(=O)CC[C@]5(C)C4CC[C@]3(C)C2=O)cc1OC (some centres undefined) | 2.82 µM | 10.5 µM | 3.22 µM | 13 µM | 2.55 µM | 6.17 µM |  |  | 1.5 µM | 2.95 µM | 2.18 µM | 5.18 µM | 2.37 µM | 5.07 µM | 7.15 µM | > 100 µM | 2.85 µM | 11.2 µM | 2.98 µM | 13.4 µM
